In brackets after ≈: the same amount, converted by molar mass.
Columns and labels:
Format in all cases: functional
Enterococcus [1] = assay: Antibacterial activity against vancomycin-resistant Enterococcus ATCC 51299 after overnight incubation by two-fold serial dilution method
Enterococcus [2] = assay: Antibacterial activity against vancomycin-resistant Enterococcus ATCC 29212 after overnight incubation by two-fold serial dilution method
Enterococcus faecium [3] = assay: Antibacterial activity against vancomycin-resistant Enterococcus faecium clinical isolate 23/240 after overnight incubation by two-fold serial dilution method
Enterococcus faecium [4] = assay: Antibacterial activity against vancomycin-resistant Enterococcus faecium clinical isolate 10177 after overnight incubation by two-fold serial dilution method
Enterococcus faecium [5] = assay: Antibacterial activity against vancomycin-resistant Enterococcus faecium clinical isolate 28/211 after overnight incubation by two-fold serial dilution method
Enterococcus faecium [6] = assay: Antibacterial activity against vancomycin-resistant Enterococcus faecium clinical isolate 5396 after overnight incubation by two-fold serial dilution method
Enterococcus faecium [7] = assay: Antibacterial activity against vancomycin-resistant Enterococcus faecium clinical isolate 31176 after overnight incubation by two-fold serial dilution method
Enterococcus faecium [8] = assay: Antibacterial activity against vancomycin-resistant Enterococcus faecium clinical isolate 31386 after overnight incubation by two-fold serial dilution method
Enterococcus faecium [9] = assay: Antibacterial activity against vancomycin-resistant Enterococcus faecium clinical isolate 3864 after overnight incubation by two-fold serial dilution method
Enterococcus faecium [10] = assay: Antibacterial activity against vancomycin-resistant Enterococcus faecium clinical isolate 27/16917 after overnight incubation by two-fold serial dilution method; details: isolate 27/1691
Enterococcus faecium [11] = assay: Antibacterial activity against vancomycin-resistant Enterococcus faecium clinical isolate 12875 after overnight incubation by two-fold serial dilution method
Enterococcus faecium [12] = assay: Antibacterial activity against vancomycin-resistant Enterococcus faecium clinical isolate 27/221 after overnight incubation by two-fold serial dilution method
Enterococcus faecium [13] = assay: Antibacterial activity against vancomycin-resistant Enterococcus faecium clinical isolate 8/224 after overnight incubation by two-fold serial dilution method
Enterococcus faecium [14] = assay: Antibacterial activity against vancomycin-resistant Enterococcus faecium clinical isolate 147969 after overnight incubation by two-fold serial dilution method
Enterococcus faecium [15] = assay: Antibacterial activity against vancomycin-resistant Enterococcus faecium clinical isolate 30/48 after overnight incubation by two-fold serial dilution method
Enterococcus faecium [16] = assay: Antibacterial activity against vancomycin-resistant Enterococcus faecium clinical isolate 5484 after overnight incubation by two-fold serial dilution method
Enterococcus faecium [17] = assay: Antibacterial activity against vancomycin-resistant Enterococcus faecium clinical isolate 6/22 after overnight incubation by two-fold serial dilution method
Enterococcus faecium [18] = assay: Antibacterial activity against vancomycin-resistant Enterococcus faecium clinical isolate 18906 after overnight incubation by two-fold serial dilution method
Enterococcus faecalis [19] = assay: Antibacterial activity against vancomycin-resistant Enterococcus faecalis clinical isolate 5814 after overnight incubation by two-fold serial dilution method
Enterococcus faecalis [20] = assay: Antibacterial activity against vancomycin-resistant Enterococcus faecalis clinical isolate 7670 after overnight incubation by two-fold serial dilution method
Enterococcus faecalis [21] = assay: Antibacterial activity against vancomycin-resistant Enterococcus faecalis clinical isolate 22626 after overnight incubation by two-fold serial dilution method
Enterococcus faecalis [22] = assay: Antibacterial activity against vancomycin-resistant Enterococcus faecalis clinical isolate 7077 after overnight incubation by two-fold serial dilution method
Enterococcus faecalis [23] = assay: Antibacterial activity against vancomycin-resistant Enterococcus faecalis clinical isolate 7079 after overnight incubation by two-fold serial dilution method
Enterococcus faecalis [24] = assay: Antibacterial activity against vancomycin-resistant Enterococcus faecalis clinical isolate 7846 after overnight incubation by two-fold serial dilution method
Enterococcus faecalis [25] = assay: Antibacterial activity against vancomycin-resistant Enterococcus faecalis clinical isolate 21/235 after overnight incubation by two-fold serial dilution method
Enterococcus faecalis [26] = assay: Antibacterial activity against vancomycin-resistant Enterococcus faecalis clinical isolate 5642 after overnight incubation by two-fold serial dilution method
Enterococcus faecalis [27] = assay: Antibacterial activity against vancomycin-resistant Enterococcus faecalis clinical isolate 6093 after overnight incubation by two-fold serial dilution method
Enterococcus faecalis [28] = assay: Antibacterial activity against vancomycin-resistant Enterococcus faecalis clinical isolate 22/203 after overnight incubation by two-fold serial dilution method
Enterococcus faecalis [29] = assay: Antibacterial activity against vancomycin-resistant Enterococcus faecalis clinical isolate 387702 after overnight incubation by two-fold serial dilution method
Enterococcus faecalis [30] = assay: Antibacterial activity against vancomycin-resistant Enterococcus faecalis clinical isolate 27728 after overnight incubation by two-fold serial dilution method
Enterococcus faecalis [31] = assay: Antibacterial activity against vancomycin-resistant Enterococcus faecalis clinical isolate 5648 after overnight incubation by two-fold serial dilution method
Enterococcus faecium [32] = assay: Antibacterial activity against vancomycin-resistant Enterococcus faecium clinical isolate 17301 after overnight incubation by two-fold serial dilution method
Enterococcus faecium [33] = assay: Antibacterial activity against vancomycin-resistant Enterococcus faecium clinical isolate 7/27 after overnight incubation by two-fold serial dilution method
Enterococcus faecium [34] = assay: Antibacterial activity against vancomycin-resistant Enterococcus faecium clinical isolate 151495 after overnight incubation by two-fold serial dilution method
Enterococcus faecium [35] = assay: Antibacterial activity against vancomycin-resistant Enterococcus faecium clinical isolate 15/213 after overnight incubation by two-fold serial dilution method
Enterococcus faecium [36] = assay: Antibacterial activity against vancomycin-resistant Enterococcus faecium clinical isolate 14643 after overnight incubation by two-fold serial dilution method
Enterococcus faecium [37] = assay: Antibacterial activity against vancomycin-resistant Enterococcus faecium clinical isolate 29/203 after overnight incubation by two-fold serial dilution method
Enterococcus faecium [38] = assay: Antibacterial activity against vancomycin-resistant Enterococcus faecium clinical isolate 16475 after overnight incubation by two-fold serial dilution method
Enterococcus faecium [39] = assay: Antibacterial activity against vancomycin-resistant Enterococcus faecium clinical isolate 16115 after overnight incubation by two-fold serial dilution method
Enterococcus faecium [40] = assay: Antibacterial activity against vancomycin-resistant Enterococcus faecium clinical isolate 12/266 after overnight incubation by two-fold serial dilution method
Enterococcus faecium [41] = assay: Antibacterial activity against vancomycin-resistant Enterococcus faecium clinical isolate 13246 after overnight incubation by two-fold serial dilution method

CN[C@H](CC(C)C)C(=O)N[C@H]1C(=O)N[C@@H](CC(N)=O)C(=O)N[C@H]2C(=O)N[C@H]3C(=O)N[C@H](C(=O)N[C@H](C(=O)O)c4cc(O)cc(O)c4-c4cc3ccc4O)[C@H](O)c3ccc(c(Cl)c3)Oc3cc2cc(c3O[C@@H]2O[C@H](CO)[C@@H](O)[C@H](O)[C@H]2O[C@H]2C[C@](C)(N)[C@H](O)[C@H](C)O2)Oc2ccc(cc2Cl)[C@H]1O [VANCOMYCIN]
MIC (Enterococcus [1]): 64 µg/mL (≈ 44.2 µM) | MIC (Enterococcus [2]): 2 µg/mL (≈ 1.38 µM) | MIC (Enterococcus faecium [3]): 64 µg/mL (≈ 44.2 µM) | MIC (Enterococcus faecium [4]): 64 µg/mL (≈ 44.2 µM) | MIC (Enterococcus faecium [5]): 64 µg/mL (≈ 44.2 µM) | MIC (Enterococcus faecium [6]): 64 µg/mL (≈ 44.2 µM) | MIC (Enterococcus faecium [7]): 64 µg/mL (≈ 44.2 µM) | MIC (Enterococcus faecium [8]): 64 µg/mL (≈ 44.2 µM) | MIC (Enterococcus faecium [9]): 64 µg/mL (≈ 44.2 µM) | MIC (Enterococcus faecium [10]): 64 µg/mL (≈ 44.2 µM) | MIC (Enterococcus faecium [11]): 64 µg/mL (≈ 44.2 µM) | MIC (Enterococcus faecium [12]): 64 µg/mL (≈ 44.2 µM) | MIC (Enterococcus faecium [13]): 64 µg/mL (≈ 44.2 µM) | MIC (Enterococcus faecium [14]): 64 µg/mL (≈ 44.2 µM) | MIC (Enterococcus faecium [15]): 64 µg/mL (≈ 44.2 µM) | MIC (Enterococcus faecium [16]): 64 µg/mL (≈ 44.2 µM) | MIC (Enterococcus faecium [17]): 64 µg/mL (≈ 44.2 µM) | MIC (Enterococcus faecium [18]): 64 µg/mL (≈ 44.2 µM)

H-RWRLLLLKRH-OH
MIC (Enterococcus [1]): 12.5 µg/mL | MIC (Enterococcus [2]): 12.5 µg/mL | MIC (Enterococcus faecalis [19]): 12.5 µg/mL | MIC (Enterococcus faecalis [20]): 12.5 µg/mL | MIC (Enterococcus faecalis [21]): 12.5 µg/mL | MIC (Enterococcus faecalis [22]): 12.5 µg/mL | MIC (Enterococcus faecalis [23]): 12.5 µg/mL | MIC (Enterococcus faecalis [24]): 12.5 µg/mL | MIC (Enterococcus faecalis [25]): 12.5 µg/mL | MIC (Enterococcus faecalis [26]): 12.5 µg/mL | MIC (Enterococcus faecalis [27]): 12.5 µg/mL | MIC (Enterococcus faecalis [28]): 12.5 µg/mL | MIC (Enterococcus faecalis [29]): 12.5 µg/mL | MIC (Enterococcus faecalis [30]): 12.5 µg/mL | MIC (Enterococcus faecalis [31]): 12.5 µg/mL | MIC (Enterococcus faecium [32]): 12.5 µg/mL | MIC (Enterococcus faecium [33]): 12.5 µg/mL | MIC (Enterococcus faecium [3]): 12.5 µg/mL | MIC (Enterococcus faecium [4]): 12.5 µg/mL | MIC (Enterococcus faecium [5]): 12.5 µg/mL | MIC (Enterococcus faecium [34]): 12.5 µg/mL | MIC (Enterococcus faecium [35]): 12.5 µg/mL | MIC (Enterococcus faecium [36]): 12.5 µg/mL | MIC (Enterococcus faecium [6]): 12.5 µg/mL | MIC (Enterococcus faecium [7]): 12.5 µg/mL | MIC (Enterococcus faecium [8]): 12.5 µg/mL | MIC (Enterococcus faecium [9]): 12.5 µg/mL | MIC (Enterococcus faecium [10]): 12.5 µg/mL | MIC (Enterococcus faecium [11]): 12.5 µg/mL | MIC (Enterococcus faecium [12]): 12.5 µg/mL | MIC (Enterococcus faecium [13]): 12.5 µg/mL | MIC (Enterococcus faecium [14]): 12.5 µg/mL | MIC (Enterococcus faecium [37]): 12.5 µg/mL | MIC (Enterococcus faecium [15]): 12.5 µg/mL | MIC (Enterococcus faecium [38]): 12.5 µg/mL | MIC (Enterococcus faecium [39]): 12.5 µg/mL | MIC (Enterococcus faecium [16]): 12.5 µg/mL | MIC (Enterococcus faecium [40]): 12.5 µg/mL | MIC (Enterococcus faecium [17]): 12.5 µg/mL | MIC (Enterococcus faecium [18]): 12.5 µg/mL | MIC (Enterococcus faecium [41]): 12.5 µg/mL

H-RWRLLLLKKF-OH
MIC (Enterococcus [1]): 25 µg/mL | MIC (Enterococcus [2]): 25 µg/mL | MIC (Enterococcus faecalis [19]): 25 µg/mL | MIC (Enterococcus faecalis [20]): 25 µg/mL | MIC (Enterococcus faecalis [21]): 25 µg/mL | MIC (Enterococcus faecalis [22]): 25 µg/mL | MIC (Enterococcus faecalis [23]): 25 µg/mL | MIC (Enterococcus faecalis [24]): 25 µg/mL | MIC (Enterococcus faecalis [25]): 25 µg/mL | MIC (Enterococcus faecalis [26]): 25 µg/mL | MIC (Enterococcus faecalis [27]): 25 µg/mL | MIC (Enterococcus faecalis [28]): 25 µg/mL | MIC (Enterococcus faecalis [29]): 25 µg/mL | MIC (Enterococcus faecalis [30]): 25 µg/mL | MIC (Enterococcus faecalis [31]): 25 µg/mL | MIC (Enterococcus faecium [32]): 25 µg/mL | MIC (Enterococcus faecium [33]): 25 µg/mL | MIC (Enterococcus faecium [3]): 25 µg/mL | MIC (Enterococcus faecium [4]): 25 µg/mL | MIC (Enterococcus faecium [5]): 25 µg/mL | MIC (Enterococcus faecium [34]): 25 µg/mL | MIC (Enterococcus faecium [35]): 25 µg/mL | MIC (Enterococcus faecium [36]): 25 µg/mL | MIC (Enterococcus faecium [6]): 25 µg/mL | MIC (Enterococcus faecium [7]): 25 µg/mL | MIC (Enterococcus faecium [8]): 25 µg/mL | MIC (Enterococcus faecium [9]): 25 µg/mL | MIC (Enterococcus faecium [10]): 25 µg/mL | MIC (Enterococcus faecium [11]): 25 µg/mL | MIC (Enterococcus faecium [12]): 25 µg/mL | MIC (Enterococcus faecium [13]): 25 µg/mL | MIC (Enterococcus faecium [14]): 25 µg/mL | MIC (Enterococcus faecium [37]): 25 µg/mL | MIC (Enterococcus faecium [15]): 25 µg/mL | MIC (Enterococcus faecium [38]): 25 µg/mL | MIC (Enterococcus faecium [39]): 25 µg/mL | MIC (Enterococcus faecium [16]): 25 µg/mL | MIC (Enterococcus faecium [40]): 25 µg/mL | MIC (Enterococcus faecium [17]): 25 µg/mL | MIC (Enterococcus faecium [18]): 25 µg/mL | MIC (Enterococcus faecium [41]): 25 µg/mL

Source: ChEMBL document CHEMBL3352237, “Synthesis and biological evaluation of novel peptide BF2 as an antibacterial agent against clinical isolates of vancomycin-resistant enterococci” (J Med Chem, 2014)
